Several values for one entry are separate records, joined by “and”; a condition that tells them apart may be missing. Equal entries are not always repeated. Entries after “also recorded” stand apart in the source; their conditions may differ. Marks after values point to notes of the source that are not given here.
Tests used:
[1] = may be as low as; cited from earlier work
[2] = system: pulmonary arterial hypertension (PAH); experiment: Case: inhaled Aviptadil in a patient with severe pulmonary arterial hypertension; format: in vivo, human
Method: A patient with severe pulmonary arterial hypertension (PAH), associated with collagen vascular disease, presented with signs of right ventricular decompensation, with an initial pulmonary vascular resistance (PVR) of 1413 dyn s cm^−5. The patient was treated before with bosentan for 3 months. This therapy was discontinued due to increased liver enzymes. PAH-specific medication was changed to triple therapy comprising inhaled iloprost and systemic sildenafil and ambrisentan. The patient developed peripheral edema, right ventricular hypertrophy, right ventricular systolic pressure (RVSP) 97 mm Hg, TAPSE (tricuspid annular plane systolic excursion) 17 mm, 6 min walking test 290 m. A repeated prostanoid therapy was refused by the patient. Due to the lack of other treatment options, treatment with inhaled Aviptadil was initiated at a dose of 4×140 μg/ml per day (560 μg/day) with overnight break, droplet characteristics of a MMAD of 3.4 μm per emitted particle (nebulizer: M-neb-dose+, NEBU-TEC, Eisenfeld, Germany). 90% of the dose were delivered at the mouthpiece (SK-211, NEBU-TEC, Eisenfeld, Germany). Inhalation time per treatment was 12 minutes. […] 6 months later the 6 min walking test was increased to 340 m, 12 months later to 410 m. 3 years later an ongoing improvement was noted, with 6 min walking distances between 430-475 m and still persistent PAH, but good right ventricular function of TAPSE 22 mm. This dramatic improvement of the patient over time is attributed to the effect of inhaled Aviptadil.

CoViD-19 = experiment: Individual curing attempts for CoViD-19 with Aviptadil, oxygen demand; format: in vivo, human
Method: Example 18: Individual Curing Attempts for the Therapy of CoViD-19 with Aviptadil 3×66 μg Daily Per Inhalationem (Oxygen Demand Via Oxygen Nasal Cannula in L Per Minute (l/min))

[3] = Side effects of inhaled vasoactive intestinal peptide in previous trials; format: in vivo, human
[4] = system: PBMCs stimulated with beryllium; experiment: Case: inhaled Aviptadil in a patient with Chronic Beryllium Disease, PBMC proliferation and cytokines; format: in vivo, human; conditions: after 6 months of treatment
From the text: A patient who was continuously exposed to beryllium at their workplace developed Chronic Beryllium Disease (CBD). This was diagnosed by tests performed on peripheral blood and bronchoalveolar lavage (BAL) mononuclear cells. […] A test called beryllium lymphocyte proliferation test (BeLPT) confirmed the CBD diagnosis. Due to the lack of available treatment options for CBD, the patient qualified for the Early Access Program treatment with inhaled Aviptadil. Therapy was initiated at a dose of 4×70 μg/ml per day dosage (280 μg per day with overnight break; nebulizer: M-neb-dose+, NEBU-TEC, Eisenfeld, Germany; mouthpiece; SK-211, NEBU-TEC, Eisenfeld, Germany). After 6 months of treatment, the proliferation rate of PBMCs stimulated with beryllium (0.1 mM) from the patient was inhibited by 100% by Aviptadil.

[5] = format: physicochemical
Method: Aviptadil can be obtained, e.g., from Bachem AG, Bubendorf, Switzerland, in GMP quality.
The experimental procedure was carried out pursuant to Ph. Eur. 2.9.44 (Preparations for Nebulisation: Characterisation). A cascade impactor (Next Generation Impactor (NGI), Copley Scientific Ltd., Nottingham, UK) was used to determine the respective percentage for each fraction of the nebulized particles.
The thus generated aerosol was delivered to the cascade impactor by means of a mouthpiece (SK-211, NEBU-TEC, Eisenfeld, Germany).
The nebulization chamber (yellow stamp, 250 μl liquid discharge) was filled. The puff profile configured at the breath simulator was chosen in such a way that a correct simulation of inhalation by means of the nebulizer was ensured. The corresponding time was recorded.
Single values obtained for each cascade were added. […] MMAD, FPF and FPM were calculated from the obtained values: […]

sarcoidosis of the lung = experiment: Case: inhaled Aviptadil in a patient with severe sarcoidosis of the lung (KSQ); format: in vivo, human; conditions: for King's College Sarcoidosis Questionnaire (KSQ) score: 280 μg per day inhaled
Method: A patient with severe sarcoidosis of the lung indicated for therapeutic treatment suffered from unproductive chronic cough, dyspnea on exertion and chronic fatigue. […] Therapy was initiated at a dose of 4×70 μg/ml per day dosage (280 μg per day with overnight break; nebulizer: M-neb-dose+, NEBU-TEC, Eisenfeld, Germany; mouthpiece; SK-211, NEBU-TEC, Eisenfeld, Germany). Therapeutic benefit was measured by the newly established and well validated quality of life questionnaire for sarcoidosis, the King's College Sarcoidosis Questionnaire (KSQ; Patel et al. (2013) Thorax 68: 57-65). Therein an increase in score by 5 over time indicates significant clinical improvement. The patient started treatment at a score of 66, improved after 3 months of treatment to score 71, and after 6 months of treatment to score 77, which is 11 points higher than at beginning of treatment with Aviptadil.

Patients with SARS-CoV-2 = experiment: Study of aviptadil inhalation versus placebo in CoViD-19 patients; format: in vivo, human; conditions: during treatment, 28 days inhalative
From the text: A study examines the positive effect of aviptadil inhalation (dosage example 17) in CoViD-19 patients.
Patients with SARS-CoV-2 are randomized into two groups, one with 28 days aviptadil inhalative, one with 28 days placebo inhalative.

[6] = system: CoViD-19 infected patients at risk for ARDS; conditions: human, in vivo
ARDS = conditions: systemic administration, cited from earlier work
[7] = Aviptadil aerosol from M-neb dose+ MN-300/8 tested with COPLEY next generation impactor; format: physicochemical
Method: Using the M-neb® dose^+ mesh nebulizer MN-300/8 and the respective mouthpiece, Aviptadil has been tested with the COPLEY next generation impactor (NGI). The mass median aerodynamic diameter (MMD) of Aviptadil dissolved in 0.9% NaCl was 3.3-3.5 μm per emitted particle. The number of those particles <5 μm=85.70%, and the dose delivered at the mouthpiece was 90.2% of the tested dosages.
Aviptadil has been tested in 0.9% NaCl solution at different drug concentrations (35 μg/ml, 70 μg/ml, 140 μg/ml, 200 μg/ml, 250 μg/ml, 400 μg/ml).

[8] = estimated values with 25 l/min Highflow with oxygen from 72 to 44%
[9] = oxygen nasal cannula, 3×66 μg daily, one table line per patient
[10] = oxygen nasal cannula, 3×66 μg daily, one table line per patient, listed as Aviptadil
[11] = 0.1 mg/ml in physiological saline

For CC[C@H](C)[C@H](NC(=O)[C@H](CO)NC(=O)[C@H](CC(N)=O)NC(=O)[C@H](CC(C)C)NC(=O)[C@H](Cc1ccc(O)cc1)NC(=O)[C@H](CCCCN)NC(=O)[C@H](CCCCN)NC(=O)[C@@H](NC(=O)[C@H](C)NC(=O)[C@H](CCSC)NC(=O)[C@H](CCC(N)=O)NC(=O)[C@H](CCCCN)NC(=O)[C@H](CCCNC(=N)N)NC(=O)[C@H](CC(C)C)NC(=O)[C@H](CCCNC(=N)N)NC(=O)[C@@H](NC(=O)[C@H](Cc1ccc(O)cc1)NC(=O)[C@H](CC(N)=O)NC(=O)[C@H](CC(=O)O)NC(=O)[C@@H](NC(=O)[C@H](Cc1ccccc1)NC(=O)[C@@H](NC(=O)[C@H](C)NC(=O)[C@H](CC(=O)O)NC(=O)[C@H](CO)NC(=O)[C@@H](N)Cc1c[nH]cn1)C(C)C)[C@@H](C)O)[C@@H](C)O)C(C)C)C(=O)N[C@@H](CC(C)C)C(=O)N[C@@H](CC(N)=O)C(N)=O [vasoactive intestinal peptide], the half-life in blood [1] is given as “about 2 minutes”, the clinical course ([2]; 560 μg/day inhaled) is given as “gradual improvement” and the “6 min walking distances” value ([2]; 3 years later) is given as 430-475 m. For the same molecule, the TAPSE ([2]; 3 years later, 17 mm before) was 22 mm, the “6 min walking test” value ([2]; 6 months later, 560 μg/day inhaled, 290 m before) was 340 m and the “6 min walking test” value ([2]; 12 months later, 560 μg/day inhaled) was 410 m. For the same molecule, the “O2 Day 1” value (CoViD-19; [8]) was 15* l/min, the “O2 Day 2” value (CoViD-19; [8]) was 15* l/min and the “O2 Day 3” value (CoViD-19; [8]) was 14* l/min. For the same molecule, the “O2 Day 4” value (CoViD-19; [8]) was 11* l/min, the “O2 Day 5” value (CoViD-19; [8]) was 6* l/min and the “O2 Day 6” value (CoViD-19; [8]) was 6* l/min. For the same molecule, the “O2 Day 11” value (CoViD-19; [9]) was 6 L/min, the “O2 Day 12” value (CoViD-19; [9]) was 3.3 L/min and the “O2 Day 13” value (CoViD-19; [9]) was 2 L/min. The “O2 Day 14” value (CoViD-19; [9]) was 1.5 L/min, the “O2 Day 15” value (CoViD-19; [9]) was 1 L/min and the “O2 Day 16” value (CoViD-19; [9]) was 0.5 L/min. For the same molecule, the “O2 Day 17” value (CoViD-19; [9]) was 0 L/min, the “O2 Day 1” value (CoViD-19; [10]) was 5 L/min and 3 L/min and 2 L/min and 1.5 L/min and the “O2 Day 2” value (CoViD-19; [10]) was 4 l/min and 3 l/min (2×) and 2 l/min. For the same molecule, the “O2 Day 3” value (CoViD-19; [10]) was 6 l/min and 4 l/min and 3 l/min (2×) and 2 l/min, the “O2 Day 4” value (CoViD-19; [10]) was 5 l/min and 4 l/min and 2 l/min (3×) and the “O2 Day 5” value (CoViD-19; [10]) was 4 l/min and 3 l/min and 1 l/min (2×) and 0 l/min. For the same molecule, the “O2 Day 6” value (CoViD-19; [10]) was 3 l/min and 2 l/min (2×) and 0 l/min, the “O2 Day 7” value (CoViD-19; [10]) was 2 l/min (2×) and 1 l/min and 4 l/min and the “O2 Day 8” value (CoViD-19; [10]) was 0 l/min and 1 l/min (2×) and 5.5 l/min. For the same molecule, the “O2 Day 9” value (CoViD-19; [10]) was 1 l/min (2×) and 4.7 l/min, the “O2 Day 10” value (CoViD-19; [10]) was 0 l/min (2×) and 5.5 l/min and the “side effects found with systemic administration” value [3] was “lacks the side effects; also recorded: lacks these side effects”. The “production of cytokines TNF-alpha, IL-17” value [4] was “significantly diminished”, the MMAD [5, 11] was 3.40 μm and the “released dosage at the mouthpiece as share of the nominal value” [5, 11] was 80%. The released dosage ([5]; 0.1 mg/ml in physiological saline, at the mouthpiece) was 0.08 mg, the “MMAD per emitted particle” value ([5]; Example 11, 140 μg/ml, M-neb-dose+) was 3.4 μm and the “dose delivered at the mouthpiece” value ([5]; Example 11, mouthpiece SK-211) was 90%. For the same molecule, the “time of aerosol release” value ([5]; corresponds to 30 strokes/breaths) was 3 min, the “King's College Sarcoidosis Questionnaire (KSQ) score” value (sarcoidosis of the lung; after 3 months, score 66 at start) was 71 and the “KSQ score higher than at beginning of treatment” value (sarcoidosis of the lung; after 6 months) was 11 points. The “King's College Sarcoidosis Questionnaire (KSQ) score” value (sarcoidosis of the lung; after 6 months) was 77, the “T-cells expressing CD28 promoting inflammation” value (Patients with SARS-CoV-2) was “diminished” and the “TNF release in the lung” value (Patients with SARS-CoV-2) was “diminished”. For the same molecule, the “regulatory T-cells dampening inflammation” value (Patients with SARS-CoV-2) was “increased”, the “Arterio-alveolar oxygen difference (AaDO2)” value [6] was “lower” and the “need of oxygen supplementation” value [6] was “lower need of oxygen supplementation”. The “oxygenation (SpO2/FiO2 quotient)” value [6] was “better oxygenation”, the “rate of progression to ARDS” value [6] was “reduced rate of progression to ARDS” and the respiratory rate [6] was “decrease of respiratory rate”. The systemic side effects (ARDS; some of the patients) was “hypotension”, the “effect on ARDS” value (ARDS; trial discontinued) was “lack of positive effect” and the “dose delivered at the mouthpiece, of the tested dosages” value [7] was 90.2%. The “linearity of aerosol output rates at the mouthpiece over increasing numbers of breathing cycles” value ([7]; 35 to 400 μg/ml in 0.9% NaCl) was “excellent linearity”, the “mass median aerodynamic diameter (MMD) per emitted particle” value ([7]; dissolved in 0.9% NaCl) was 3.3-3.5 μm and the “number of particles <5 μm” value ([7]; dissolved in 0.9% NaCl) was 85.70%.
